Reference: US5635477A, “Cyclic compounds useful as inhibitors of platelet glycoprotein IIB/IIIA” (The DuPont Merck Pharmaceutical Company, priority 1995, dated 1997)
Starred links: 1 amine or outer side, 2 acyl side, 3 side chain; linkers in the order of their positions; H or OH if unused. Non-standard residues stand in square brackets, D forms with d. Residues, ends and D or L forms follow the SMILES beside them. NMePhe(4-CH2NH2) = CN[C@@H](Cc1ccc(CN)cc1)C(=O)O; X5 = O=C(c1ccc(I)c(CN[*:1])c1)[*:2]; NMeOrn(Me) = CNCCC[C@H](NC)C(=O)O; NMeR = CN[C@@H](CCCNC(=N)N)C(=O)O; X3 = Cc1ccc(CN[*:1])cc1C(=O)[*:2]; X8 = O=C(c1cc(CN[*:1])ccc1I)[*:2]; dPhg = N[C@@H](C(=O)O)c1ccccc1; dNle = CCCC[C@@H](N)C(=O)O; 3Amb = NCc1cccc(C(=O)O)c1; dAbu = CC[C@@H](N)C(=O)O; βAla = NCCC(=O)O; Sar = CNCC(=O)O

Biological target: agonist-induced platelet aggregation (Homo sapiens, UniProt P05106+P08514)
Sequence (P08514 32-1039): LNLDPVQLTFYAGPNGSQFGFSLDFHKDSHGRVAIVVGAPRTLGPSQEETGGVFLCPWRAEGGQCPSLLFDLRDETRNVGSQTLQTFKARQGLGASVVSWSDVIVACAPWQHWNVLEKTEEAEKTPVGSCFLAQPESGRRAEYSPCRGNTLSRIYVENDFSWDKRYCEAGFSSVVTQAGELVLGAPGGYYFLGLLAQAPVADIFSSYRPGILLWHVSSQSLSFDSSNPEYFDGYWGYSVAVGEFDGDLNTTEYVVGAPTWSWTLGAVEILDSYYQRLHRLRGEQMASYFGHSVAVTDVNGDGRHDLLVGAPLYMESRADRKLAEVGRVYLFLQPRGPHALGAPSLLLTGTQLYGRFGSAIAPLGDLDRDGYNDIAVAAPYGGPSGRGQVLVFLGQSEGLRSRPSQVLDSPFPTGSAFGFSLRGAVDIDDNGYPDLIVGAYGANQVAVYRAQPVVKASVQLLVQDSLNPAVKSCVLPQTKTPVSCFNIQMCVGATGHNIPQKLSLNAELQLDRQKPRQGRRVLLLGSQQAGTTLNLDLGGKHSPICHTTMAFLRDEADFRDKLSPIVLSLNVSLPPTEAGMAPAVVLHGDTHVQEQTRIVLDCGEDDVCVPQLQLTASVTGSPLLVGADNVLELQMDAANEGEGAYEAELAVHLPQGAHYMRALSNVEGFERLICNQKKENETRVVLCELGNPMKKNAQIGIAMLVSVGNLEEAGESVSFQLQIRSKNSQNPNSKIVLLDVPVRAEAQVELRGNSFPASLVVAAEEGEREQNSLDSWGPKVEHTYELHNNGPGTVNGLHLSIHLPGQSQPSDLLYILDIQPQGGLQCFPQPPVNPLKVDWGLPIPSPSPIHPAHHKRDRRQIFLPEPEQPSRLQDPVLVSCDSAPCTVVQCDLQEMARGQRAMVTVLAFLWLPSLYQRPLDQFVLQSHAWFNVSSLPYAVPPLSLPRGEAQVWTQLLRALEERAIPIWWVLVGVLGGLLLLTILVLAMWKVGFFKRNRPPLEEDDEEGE
Sequence (P05106 27-788): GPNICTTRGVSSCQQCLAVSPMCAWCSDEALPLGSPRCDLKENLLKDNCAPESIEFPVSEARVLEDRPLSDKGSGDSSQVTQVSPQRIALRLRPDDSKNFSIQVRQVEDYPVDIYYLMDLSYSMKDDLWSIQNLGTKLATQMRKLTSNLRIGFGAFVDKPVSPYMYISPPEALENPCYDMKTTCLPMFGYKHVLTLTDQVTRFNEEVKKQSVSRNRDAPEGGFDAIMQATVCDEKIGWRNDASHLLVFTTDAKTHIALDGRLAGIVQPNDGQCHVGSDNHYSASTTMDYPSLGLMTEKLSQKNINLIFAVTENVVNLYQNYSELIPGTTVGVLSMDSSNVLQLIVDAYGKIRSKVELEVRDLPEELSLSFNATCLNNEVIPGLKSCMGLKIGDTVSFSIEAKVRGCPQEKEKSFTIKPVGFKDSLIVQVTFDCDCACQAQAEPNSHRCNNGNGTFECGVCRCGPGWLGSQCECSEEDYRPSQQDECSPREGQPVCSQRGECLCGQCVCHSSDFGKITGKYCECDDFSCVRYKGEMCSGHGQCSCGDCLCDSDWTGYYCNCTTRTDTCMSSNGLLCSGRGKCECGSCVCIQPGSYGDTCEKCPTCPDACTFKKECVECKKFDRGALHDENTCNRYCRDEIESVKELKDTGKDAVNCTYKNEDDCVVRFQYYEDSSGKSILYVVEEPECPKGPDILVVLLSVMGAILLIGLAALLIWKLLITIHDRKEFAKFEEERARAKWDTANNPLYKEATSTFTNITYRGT
Test: Platelet Aggregation Assay
Assay type: cell-based
Details: human PRP; agonist-induced aggregation
Protocol: Blood was collected into 10 ml citrated Vacutainer tubes.

Row | SMILES | IC50 [µM]
1 | CC(C)[C@H]1NC(=O)c2ccc3cccc(c3c2)CNC(=O)[C@H](CC(=O)O)NC(=O)CNC(=O)[C@H](CCCNC(=N)N)N(C)C1=O [Example 89c, cyclo-(D-Val-NMeArg-Gly-Asp-aminomethylnaphthoic acid)] | 1 to 10
2 | CN1C(=O)[C@@H](CCCCN)NC(=O)c2cccc(c2)CNC(=O)[C@H](CC(=O)O)NC(=O)CNC(=O)[C@@H]1CCCNC(=N)N [Example 13f, cyclo-(D-Lys-NMeArg-Gly-Asp-Mamb)] (cyclo([NMeR]GD[3Amb][dK])) | < 1
3 | CC(C)[C@H]1NC(=O)c2cccc(c2)CNC(=O)[C@@H](CC(=O)O)NC(=O)CNC(=O)[C@H](CCCNC(=N)N)N(C)C1=O [Example 64c, cyclo-(D-Val-NMeArg-Gly-D-Asp-Mamb)] | 1 to 10
4 | N=C(N)NCCC[C@@H]1NC(=O)[C@@H](Cc2ccccc2)NC(=O)c2cccc(c2)CNC(=O)[C@H](CC(=O)O)NC(=O)CNC1=O [Example 36, cyclo-(D-Phe-Arg-Gly-Asp-Mamb)] (cyclo(RGD[3Amb][dF])) | 10 to 100
5 | CC[C@H]1NC(=O)c2cc(ccc2I)CNC(=O)[C@H](CC(=O)O)NC(=O)CNC(=O)[C@H](CCCNC(=N)N)N(C)C1=O [Example 100b, cyclo-(D-Abu-NMeArg-Gly-Asp-3-aminomethyl-6-iodobenzoic acid)] (cyclo([NMeR]GD[X8][dAbu])) | < 1
6 | CC(C)[C@H]1NC(=O)c2cccc(c2)CNC(=O)[C@H](CC(=O)O)NC(=O)[C@H](C)NC(=O)[C@H](CCCNC(=N)N)N(C)C1=O [Example 58c, cyclo-(D-Val-NMeArg-L-Ala-Asp-Mamb)] (cyclo([3Amb][dV][NMeR]AD)) | 10 to 100
7 | CC(C)[C@H]1NC(=O)c2cccc(c2)CNC(=O)[C@H](CC(=O)O)NC(=O)CNC(=O)[C@@H](CCCNC(=N)N)N(C)C1=O [Example 4b, cyclo-(D-Val-D-NMeArg-Gly-Asp-Mamb)] | 1 to 10
8 | CC(C)[C@H]1NC(=O)c2cccc(c2)CNC(=O)[C@H](CC(=O)O)NC(=O)CCNC(=O)[C@H](CCCNC(=N)N)N(C)C1=O [Example 54, cyclo-(D-Val-NMeArg-b-Ala-Asp-Mamb)] (cyclo([3Amb][dV][NMeR][βAla]D)) | 1 to 10
9 | CC(C)[C@H]1NC(=O)c2ccc3c(c2)C(CCC3)NC(=O)[C@H](CC(=O)O)NC(=O)CNC(=O)[C@H](CCCNC(=N)N)N(C)C1=O (single isomer, unassigned) [Example 89b, cyclo-(D-Val-NMeArg-Gly-Asp-aminotetralincarboxylic acid)] | < 1
10 | CC[C@H]1NC(=O)c2cccc(c2)CNC(=O)[C@H](CC(=O)O)NC(=O)CNC(=O)[C@H](CCCNC)N(C)C1=O [Example 89e, cyclo-(D-Abu-di-NMeOrn-Gly-Asp-Mamb)] (cyclo([dAbu][NMeOrn(Me)]GD[3Amb])) | 1 to 10
11 | CC(C)[C@H]1NC(=O)c2ccc(Cl)c(c2)CNC(=O)[C@H](CC(=O)O)NC(=O)CNC(=O)[C@H](CCCNC(=N)N)N(C)C1=O [Example 93, cyclo-(D-Val-NMeArg-Gly-Asp-3-aminomethyl-4-chlorobenzoic acid)] | < 1
12 | CC(C)[C@H]1NC(=O)c2cccc(c2)CNC(=O)[C@H](CC(=O)O)NC(=O)CNC(=O)[C@H](CCCNC(=N)N)NC1=O [Example 32, cyclo-(D-Val-Arg-Gly-Asp-Mamb)] | 1 to 10
13 | N=C(N)NCCC[C@@H]1NC(=O)[C@H](Cc2ccccc2)NC(=O)c2cccc(c2)CNC(=O)[C@H](CC(=O)O)NC(=O)CNC1=O [Example 37, cyclo-(Phe-Arg-Gly-Asp-Mamb)] (cyclo(RGD[3Amb]F)) | 10 to 100
14 | C[C@H]1NC(=O)c2cccc(c2)CNC(=O)[C@H](CC(=O)O)NC(=O)CNC(=O)[C@H](CCCNC(=N)N)N(C)C1=O [Example 2, cyclo-(D-Ala-NMeArg-Gly-Asp-Mamb)] (cyclo([NMeR]GD[3Amb][dA])) | < 1
15 | CC(C)[C@H]1NC(=O)c2ccc3c(c2)C(CCC3)NC(=O)[C@H](CC(=O)O)NC(=O)CNC(=O)[C@H](CCCNC(=N)N)N(C)C1=O (single isomer, unassigned) [Example 89a, cyclo-(D-Val-NMeArg-Gly-Asp-aminotetralincarboxylic acid)] | < 1
16 | CC[C@H]1NC(=O)c2cccc(c2)CNC(=O)[C@H](CC(=O)O)NC(=O)CNC(=O)[C@H](CCCNC(=N)N)NC1=O [Example 34, cyclo-(D-Abu-Arg-Gly-Asp-Mamb)] (cyclo(RGD[3Amb][dAbu])) | 1 to 10
17 | CN1C(=O)[C@H]2CCCN2C(=O)c2cccc(c2)CNC(=O)[C@H](CC(=O)O)NC(=O)CNC(=O)[C@@H]1CCCNC(=N)N [Example 25, cyclo-(D-Pro-NMeArg-Gly-Asp-Mamb)] (cyclo([NMeR]GD[3Amb][dP])) | < 1
18 | CN1C(=O)[C@@H](c2ccccc2)NC(=O)c2cccc(c2)CNC(=O)[C@H](CC(=O)O)NC(=O)CNC(=O)[C@@H]1CCCNC(=N)N [Example 11, cyclo-(D-Phg-NMeArg-Gly-Asp-Mamb)] (cyclo([NMeR]GD[3Amb][dPhg])) | < 1
19 | CC(C)[C@H]1NC(=O)c2cccc(c2)CNC(=O)[C@H](CC(=O)O)NC(=O)CNC(=O)[C@H](Cc2ccc(CN)cc2)N(C)C1=O [Example 40, cyclo-(D-Val-NMeAmf-Gly-Asp-Mamb)] (cyclo([dV][NMePhe(4-CH2NH2)]GD[3Amb])) | < 1

Row | SMILES | IC50 [µM]
20 | CC(C)[C@H]1NC(=O)Cc2cccc(c2)NC(=O)[C@H](CC(=O)O)NC(=O)CNC(=O)[C@H](CCCNC(=N)N)N(C)C1=O [Example 92, cyclo-(D-Val-NMeArg-Gly-Asp-3-aminophenylacetic acid)] | < 1
21 | N=C(N)NCCC[C@@H]1NC(=O)[C@@H](CO)NC(=O)c2cccc(c2)CNC(=O)[C@H](CC(=O)O)NC(=O)CNC1=O [Example 35, cyclo-(D-Ser-Arg-Gly-Asp-Mamb)] (cyclo(RGD[3Amb][dS])) | 1 to 10
22 | CN1C(=O)CNC(=O)c2cccc(c2)CNC(=O)[C@H](CC(=O)O)NC(=O)CNC(=O)[C@@H]1CCCNC(=N)N [Example 1, cyclo-(Gly-NMeArg-Gly-Asp-Mamb)] (cyclo([NMeR]GD[3Amb]G)) | < 1
23 | C[C@H]1NC(=O)c2cccc(c2)CNC(=O)[C@H](CC(=O)O)NC(=O)CNC(=O)[C@H](CCCNC(=N)N)NC1=O [Example 30, cyclo-(D-Ala-Arg-Gly-Asp-Mamb)] (cyclo(RGD[3Amb][dA])) | 1 to 10
24 | CCCC[C@H]1NC(=O)c2cccc(c2)CNC(=O)[C@H](CC(=O)O)NC(=O)CNC(=O)[C@H](CCCNC(=N)N)N(C)C1=O [Example 7, cyclo-(D-Nle-NMeArg-Gly-Asp-Mamb)] (cyclo([NMeR]GD[3Amb][dNle])) | < 1
25 | CC(C)[C@H]1NC(=O)c2ccc(I)c(c2)CNC(=O)[C@H](CC(=O)O)NC(=O)CNC(=O)[C@H](CCCNC(=N)N)N(C)C1=O [Example 94, cyclo-(D-Val-NMeArg-Gly-Asp-iodo-Mamb)] | < 1
26 | CC[C@H]1NC(=O)c2ccc(I)c(c2)CNC(=O)[C@H](CC(=O)O)NC(=O)CNC(=O)[C@H](CCCNC(=N)N)N(C)C1=O [Example 89d, cyclo-(D-Abu-NMeArg-Gly-Asp-iodo-Mamb)] (cyclo([NMeR]GD[X5][dAbu])) | < 1
27 | CC(C)C[C@H]1NC(=O)c2cccc(c2)CNC(=O)[C@H](CC(=O)O)NC(=O)CNC(=O)[C@H](CCCNC(=N)N)N(C)C1=O [Example 5, cyclo-(D-Leu-NMeArg-Gly-Asp-Mamb)] (cyclo([NMeR]GD[3Amb][dL])) | < 1
28 | CC[C@H]1NC(=O)c2cc(ccc2C)CNC(=O)[C@H](CC(=O)O)NC(=O)CNC(=O)[C@H](CCCNC(=N)N)N(C)C1=O [Example 100c, cyclo-(D-Abu-NMeArg-Gly-Asp-3-aminomethyl-6-methylbenzoic acid)] (cyclo([NMeR]GD[X3][dAbu])) | < 1
29 | CC(C)[C@H]1NC(=O)c2cccc(c2)CNC(=O)C(C)(CC(=O)O)NC(=O)CNC(=O)[C@H](CCCNC(=N)N)N(C)C1=O (single isomer, unassigned) [Example 63a, cyclo-(D-Val-NMeArg-Gly-α-MeAsp-Mamb)] | 10 to 100
30 | CN1C(=O)[C@@H](Cc2ccc(O)cc2)NC(=O)c2cccc(c2)CNC(=O)[C@H](CC(=O)O)NC(=O)CNC(=O)[C@@H]1CCCNC(=N)N [Example 28f, cyclo-(D-Tyr-NMeArg-Gly-Asp-Mamb)] (cyclo([NMeR]GD[3Amb][dY])) | < 1
31 | CN1CC(=O)N(C)[C@@H](CCCNC(=N)N)C(=O)NCC(=O)N[C@@H](CC(=O)O)C(=O)NCc2cccc(c2)C1=O [Example 18, cyclo-(NMeGly-NMeArg-Gly-Asp-Mamb)] (cyclo([NMeR]GD[3Amb][Sar])) | < 1
32 | CC(C)[C@H]1NC(=O)c2cccc(c2)CNC(=O)[C@H](CC(=O)O)N(C)C(=O)CNC(=O)[C@H](CCCNC(=N)N)N(C)C1=O [Example 64b, cyclo-(D-Val-NMeArg-Gly-NMeAsp-Mamb)] | 1 to 10
33 | CC(C)[C@H]1NC(=O)c2cccc(c2)CNC(=O)C(C)(CC(=O)O)NC(=O)CNC(=O)[C@H](CCCNC(=N)N)N(C)C1=O (single isomer, unassigned) [Example 63, cyclo-(D-Val-NMeArg-Gly-α-MeAsp-Mamb)] | 1 to 10
34 | N=C(N)NCCC[C@@H]1NC(=O)CNC(=O)c2cccc(c2)CNC(=O)[C@H](CC(=O)O)NC(=O)CNC1=O [Example 29, cyclo-(Gly-Arg-Gly-Asp-Mamb)] (cyclo(RGD[3Amb]G)) | 1 to 10
35 | CN1C(=O)[C@@H](Cc2ccccc2)NC(=O)c2cccc(c2)CNC(=O)[C@H](CC(=O)O)NC(=O)CNC(=O)[C@@H]1CCCNC(=N)N [Example 12, cyclo-(D-Phe-NMeArg-Gly-Asp-Mamb)] (cyclo([NMeR]GD[3Amb][dF])) | < 1
36 | CC(C)C[C@H]1NC(=O)c2cccc(c2)CNC(=O)[C@H](CC(=O)O)NC(=O)CNC(=O)[C@H](CCCNC(=N)N)NC1=O [Example 33, cyclo-(D-Leu-Arg-Gly-Asp-Mamb)] (cyclo(RGD[3Amb][dL])) | 1 to 10
37 | CN1C(=O)CCNC(=O)c2cccc(c2)CNC(=O)[C@H](CC(=O)O)NC(=O)CNC(=O)[C@@H]1CCCNC(=N)N [Example 28c, cyclo-(b-Ala-NMeArg-Gly-Asp-Mamb)] (cyclo([NMeR]GD[3Amb][βAla])) | < 1
38 | CC(C)[C@H]1NC(=O)c2cc(ccc2Cl)CNC(=O)[C@H](CC(=O)O)NC(=O)CNC(=O)[C@H](CCCNC(=N)N)N(C)C1=O [Example 97, cyclo-(D-Val-NMeArg-Gly-Asp-3-aminomethyl-6-chlorobenzoic acid)] | < 1
